Test results from US20180353462A1, “[…] AGENTS […] FLAVONOID DERIVATIVES TARGETING KINASES, SIRTUINS AND ONCOGENIC AGENTS FOR THE TREATMENT OF CANCERS” (priority 2015, published 2018).

What was measured:
DRAK2 = target: T1, DRAK2 (Homo sapiens, UniProt O94768); assay: Kinase competition binding assay, DRAK2; conditions: Table 1 kinase panel
T1 construct: made in house
T1 sequence (O94768 1-372): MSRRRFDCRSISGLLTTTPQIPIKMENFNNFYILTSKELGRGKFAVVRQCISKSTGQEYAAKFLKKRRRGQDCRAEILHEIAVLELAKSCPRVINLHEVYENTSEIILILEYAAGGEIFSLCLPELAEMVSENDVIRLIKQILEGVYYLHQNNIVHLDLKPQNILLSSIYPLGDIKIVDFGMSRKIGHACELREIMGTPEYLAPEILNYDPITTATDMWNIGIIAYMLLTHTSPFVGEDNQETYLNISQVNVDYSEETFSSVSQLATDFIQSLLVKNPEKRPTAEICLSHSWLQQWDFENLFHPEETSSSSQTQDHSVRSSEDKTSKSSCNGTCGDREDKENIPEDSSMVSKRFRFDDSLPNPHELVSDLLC
Procedure: (§1) Cannabis flavonoids and their analogs were subjected to kinase inhibition assay. The compounds were first screened at a single concentration of 10 μM in the primary assay. […]. To determine the kd or IC50 values, competition binding assays were established, authenticated and executed as described previously. Fabian et al., “A Small Molecule-Kinase Interaction Map For Clinical Kinase Inhibitors.”, Nat Biotechnol, 23(3):329-36, Epub (2005). See also, Karaman et al., “A Quantitative Analysis Of Kinase Inhibitor Selectivity”, Nat. Biotechnol. […] For most assays, kinases were fused to T7 phage strains (Fabian, supra) and for the other assays, kinases were produced in HEK-293 cells after which they were tagged with DNA for quantitative PCR detection. In general, full-length constructs were used for small, single domain kinases, and catalytic domain constructs for large multi-domain kinases. The binding assays utilized streptavidin-coated magnetic beads treated with biotinylated small molecule ligands for 30 minutes at room temperature which generated affinity resins for the kinase assays. The liganded beads were blocked with excess biotin and washed with blocking buffer (SeaBlock (Pierce), 1% BSA, 0.05% Tween 20, 1 mM DTT) to remove unbound ligand and to reduce non-specific phage binding. […] Test compounds were prepared as 40× stocks in 100% DMSO and diluted directly into the assay (Final DMSO concentration=2.5%). All reactions were performed in polypropylene 384-well plates in a final volume of 0.04 ml. […] The beads were then re-suspended in elution buffer (1×PBS, 0.05% Tween 20, 0.5 μM non-biotinylated affinity ligand) and incubated at room temperature with shaking for 30 minutes. The kinase concentration in the eluates was measured by quantitative PCR. An illustration of the kinase interaction process is presented below. Kd/IC50 values were determined using a standard dose response curve using the hill equation. Curves were fitted using a non-linear least square fit with the Levenberg-Marquardt algorithm.
(§2) The compound(s) were screened at 10 μM and results for primary screen binding interactions are reported as ‘% Ctrl’, where lower numbers indicate stronger hits in the matrix.

DYRK1B = target: T2, DYRK1B (Homo sapiens, UniProt Q9Y463); assay: Kinase competition binding assay, DYRK1B; conditions: Table 1 kinase panel
T2 construct: made in house
Procedure: as §1, §2

NCI-H69 (Small lung) = assay: WST-1 anticancer cell proliferation assay, NCI-H69; format: cell-based; conditions: 72 hours
Procedure: Bioactivity of the above-described compounds has been verified by an anticancer cell proliferation assay using the WST-1 (4-[3-(4-iodophenyl)-2-(4-nitrophenyl)-2H-5-tetrazolio]-1, 3-benzene disulfonate) colorimetric assay by Roche Life Sciences®. Anticancer activity was tested against several standard cancer cell lines including brain, breast, Kaposi sarcoma, leukemia, lung, melanoma, tenosynovial giant cell tumor, ovarian, pancreatic, colon and prostate cancer. Cells were trypsinized and plated into 96 well plates in 50 μl of media and incubated overnight. The next day approximately 18 hours after plating, 50 μl of media containing the required flavonoid-based pharmaceutical composition was added per well. Cells were plated at a density so that 72 hours post drug addition, the cells will be in log phase (500)-2000 cells/well). The compounds and extracts were solubilized in Dimethyl sulfoxide (DMSO). The cells are allowed to proliferate for 72 hours 37° C. in humidified atmosphere of 5% CO2. The experiment is terminated using WST-1 (Roche®) 10 μl per well and absorbance is read at 450 nm %690 nm. The effect of drugs on growth is assessed as percent of cell viability. The IC50 values were determined from the extract dose versus control growth curves using Graphpad Prism® software. All experiments were carried out in duplicate and the mean results determined.

FLT3(D835V) = target: T3, FLT3(D835V) (Homo sapiens, UniProt P36888, D835V); assay: Kinase competition binding assay, FLT3(D835V); conditions: Table 1 kinase panel
T3 construct: made in house
T3 sequence (P36888 27-993 D835V): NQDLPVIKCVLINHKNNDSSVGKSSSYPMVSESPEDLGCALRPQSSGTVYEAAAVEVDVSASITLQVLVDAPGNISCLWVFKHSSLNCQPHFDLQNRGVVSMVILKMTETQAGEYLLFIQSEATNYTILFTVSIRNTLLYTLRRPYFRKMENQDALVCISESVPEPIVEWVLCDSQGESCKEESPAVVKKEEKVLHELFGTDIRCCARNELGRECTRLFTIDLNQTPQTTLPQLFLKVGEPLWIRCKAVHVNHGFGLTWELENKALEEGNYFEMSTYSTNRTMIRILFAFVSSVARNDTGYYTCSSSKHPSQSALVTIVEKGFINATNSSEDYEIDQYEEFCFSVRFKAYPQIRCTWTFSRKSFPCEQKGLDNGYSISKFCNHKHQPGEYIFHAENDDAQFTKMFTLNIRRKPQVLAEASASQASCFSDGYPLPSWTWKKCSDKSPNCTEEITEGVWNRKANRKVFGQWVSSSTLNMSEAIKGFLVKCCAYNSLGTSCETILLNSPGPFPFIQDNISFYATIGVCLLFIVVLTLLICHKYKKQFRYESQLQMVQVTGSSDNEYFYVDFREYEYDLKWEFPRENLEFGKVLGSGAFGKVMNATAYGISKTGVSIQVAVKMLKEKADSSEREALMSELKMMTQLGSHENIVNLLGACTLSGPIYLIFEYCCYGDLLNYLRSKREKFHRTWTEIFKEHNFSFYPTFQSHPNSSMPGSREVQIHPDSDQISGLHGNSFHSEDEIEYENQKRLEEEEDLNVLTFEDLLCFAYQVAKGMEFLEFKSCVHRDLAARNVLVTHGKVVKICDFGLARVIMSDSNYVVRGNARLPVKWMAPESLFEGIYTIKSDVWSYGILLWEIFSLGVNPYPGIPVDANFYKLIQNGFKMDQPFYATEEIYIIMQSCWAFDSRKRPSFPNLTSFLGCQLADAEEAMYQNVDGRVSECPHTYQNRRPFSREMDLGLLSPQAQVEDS
Procedure: as §1, §2

T2 sequence (Q9Y463 whole entry): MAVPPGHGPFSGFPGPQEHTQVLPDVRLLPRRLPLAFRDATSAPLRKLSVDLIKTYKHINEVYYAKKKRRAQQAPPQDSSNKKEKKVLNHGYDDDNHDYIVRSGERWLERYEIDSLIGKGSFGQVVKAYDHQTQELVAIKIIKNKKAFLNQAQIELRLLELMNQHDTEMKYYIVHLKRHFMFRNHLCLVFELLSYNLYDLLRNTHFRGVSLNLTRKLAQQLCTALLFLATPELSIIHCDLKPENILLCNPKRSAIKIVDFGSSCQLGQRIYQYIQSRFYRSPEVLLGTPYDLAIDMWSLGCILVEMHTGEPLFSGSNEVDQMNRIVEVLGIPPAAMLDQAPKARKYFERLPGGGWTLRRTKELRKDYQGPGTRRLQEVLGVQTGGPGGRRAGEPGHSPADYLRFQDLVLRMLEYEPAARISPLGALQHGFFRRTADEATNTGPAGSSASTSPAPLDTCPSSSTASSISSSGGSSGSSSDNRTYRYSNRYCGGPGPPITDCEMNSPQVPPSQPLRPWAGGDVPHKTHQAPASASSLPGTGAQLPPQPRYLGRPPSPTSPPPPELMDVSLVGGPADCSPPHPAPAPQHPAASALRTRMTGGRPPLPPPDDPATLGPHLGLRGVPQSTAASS

COc1cc(-c2cc(=O)c3c(O)c(C/C=C(\C)CCC=C(C)C)c(O)cc3o2)ccc1O [FBL-03A]
IC50 (DRAK2): > 20000 nM
IC50 (DYRK1B): > 20000 nM
IC50 (NCI-H69 (Small lung)): 16 µM
IC50 (FLT3(D835V)): 220 nM

COc1cc(-c2cc(=O)c3c(O)c(CC=C(C)C)c(O)cc3o2)ccc1O [FBL-03B]
IC50 (DRAK2): < 1000 nM
IC50 (DYRK1B): 1670 nM
IC50 (NCI-H69 (Small lung)): 11 µM
IC50 (FLT3(D835V)): < 1000 nM

COc1cc(-c2cc(=O)c3c(O)cc(O)c(C/C=C(\C)CCC=C(C)C)c3o2)ccc1O [FBL-03C]
IC50 (DRAK2): 980 nM
IC50 (DYRK1B): 6400 nM
IC50 (NCI-H69 (Small lung)): 18 µM
IC50 (FLT3(D835V)): 190 nM

COc1ccc(-c2cc(=O)c3c(O)c(C/C=C(\C)CCC=C(C)C)c(O)cc3o2)cc1OC [FBL-03D]
IC50 (DRAK2): > 30000 nM
IC50 (DYRK1B): > 30000 nM
IC50 (FLT3(D835V)): > 30000 nM

COc1cc(-c2cc(=O)c3c(O)cc(O)c(CC=C(C)C)c3o2)ccc1O [FBL-03G]
IC50 (DRAK2): > 10000 nM
IC50 (DYRK1B): 22.8 nM
IC50 (NCI-H69 (Small lung)): 9.5 µM
IC50 (FLT3(D835V)): < 1000 nM
